Measured values as given in article PMC7827406, “Structure–Activity Relationship (SAR) Study of Spautin-1 to Entail the Discovery of Novel NEK4 Inhibitors” (International Journal of Molecular Sciences, 2021).
Where two headings read alike, the source gives them in different places.

Legend:
Assay in all cases: biochemical
Parameters in all cases: Eurofins KinaseProfiler full panel at Km ATP, residual kinase activity (%) relative to DMSO
FGFR4(h) = FGFR4(h) (Homo sapiens, UniProt P22455)
Procedure, shortened: (§1)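 Radiometric kinase activity assays were run with ATP at Km and compounds at 10 µM, and remaining activity (%) was reported. A separate competitive binding screen measured DNA-tagged kinase displaced from immobilized active-site ligands by qPCR, giving percent kinase still bound at 10 µM compound in DMSO.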

MAP4K3(h) = target: T1, MAP4K3(h) (Homo sapiens, UniProt Q8IVH8)
T1 sequence (Q8IVH8 1-894): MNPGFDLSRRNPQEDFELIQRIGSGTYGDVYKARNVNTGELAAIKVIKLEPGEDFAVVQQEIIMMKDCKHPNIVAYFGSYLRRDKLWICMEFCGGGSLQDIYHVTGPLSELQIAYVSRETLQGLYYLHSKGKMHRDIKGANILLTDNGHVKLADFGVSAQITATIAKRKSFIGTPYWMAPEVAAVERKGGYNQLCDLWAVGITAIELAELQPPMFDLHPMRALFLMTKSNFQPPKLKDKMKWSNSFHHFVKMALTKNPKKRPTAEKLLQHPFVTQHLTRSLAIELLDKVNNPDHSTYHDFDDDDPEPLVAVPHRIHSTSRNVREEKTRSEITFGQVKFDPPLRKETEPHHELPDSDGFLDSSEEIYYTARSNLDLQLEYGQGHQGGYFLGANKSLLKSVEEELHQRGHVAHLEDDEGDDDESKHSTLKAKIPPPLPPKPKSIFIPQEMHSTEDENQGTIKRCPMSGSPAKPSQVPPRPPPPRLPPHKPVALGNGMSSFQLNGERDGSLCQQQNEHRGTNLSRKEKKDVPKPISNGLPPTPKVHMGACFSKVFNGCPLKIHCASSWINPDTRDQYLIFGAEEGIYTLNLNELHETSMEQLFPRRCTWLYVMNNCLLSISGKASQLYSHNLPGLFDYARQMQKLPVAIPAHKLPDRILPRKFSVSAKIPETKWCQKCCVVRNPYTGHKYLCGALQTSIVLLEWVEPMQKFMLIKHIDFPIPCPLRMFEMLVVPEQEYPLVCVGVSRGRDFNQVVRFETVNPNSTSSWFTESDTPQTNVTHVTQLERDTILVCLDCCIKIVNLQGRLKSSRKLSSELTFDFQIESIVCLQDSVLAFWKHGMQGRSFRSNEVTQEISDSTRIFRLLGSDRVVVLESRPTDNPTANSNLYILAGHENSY
Procedure, shortened: as §1

ICK(h) = target: T2, ICK(h) (Homo sapiens, UniProt Q9UPZ9)
T2 construct: gene CILK1
T2 sequence (Q9UPZ9 1-632): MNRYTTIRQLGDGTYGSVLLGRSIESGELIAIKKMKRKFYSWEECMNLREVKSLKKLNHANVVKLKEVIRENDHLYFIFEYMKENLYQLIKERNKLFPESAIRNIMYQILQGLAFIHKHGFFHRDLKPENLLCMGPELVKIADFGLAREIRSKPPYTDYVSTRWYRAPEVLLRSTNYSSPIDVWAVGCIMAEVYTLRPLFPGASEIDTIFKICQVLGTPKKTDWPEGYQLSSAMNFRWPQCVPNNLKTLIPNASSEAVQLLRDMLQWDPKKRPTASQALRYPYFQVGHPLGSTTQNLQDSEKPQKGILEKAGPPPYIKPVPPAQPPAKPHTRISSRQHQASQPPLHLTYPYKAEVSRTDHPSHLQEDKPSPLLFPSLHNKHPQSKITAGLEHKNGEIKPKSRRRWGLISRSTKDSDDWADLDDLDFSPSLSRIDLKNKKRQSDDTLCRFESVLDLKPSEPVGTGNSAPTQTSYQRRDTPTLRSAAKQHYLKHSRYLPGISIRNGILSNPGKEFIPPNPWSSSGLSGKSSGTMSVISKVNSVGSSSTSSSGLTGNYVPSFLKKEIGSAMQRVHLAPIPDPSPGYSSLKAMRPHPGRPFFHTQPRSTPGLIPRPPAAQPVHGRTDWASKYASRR
Procedure, shortened: as §1

IR(h) = target: T3, IR(h) (Homo sapiens, UniProt P06213)
T3 construct: gene INSR
T3 sequence (P06213 whole entry): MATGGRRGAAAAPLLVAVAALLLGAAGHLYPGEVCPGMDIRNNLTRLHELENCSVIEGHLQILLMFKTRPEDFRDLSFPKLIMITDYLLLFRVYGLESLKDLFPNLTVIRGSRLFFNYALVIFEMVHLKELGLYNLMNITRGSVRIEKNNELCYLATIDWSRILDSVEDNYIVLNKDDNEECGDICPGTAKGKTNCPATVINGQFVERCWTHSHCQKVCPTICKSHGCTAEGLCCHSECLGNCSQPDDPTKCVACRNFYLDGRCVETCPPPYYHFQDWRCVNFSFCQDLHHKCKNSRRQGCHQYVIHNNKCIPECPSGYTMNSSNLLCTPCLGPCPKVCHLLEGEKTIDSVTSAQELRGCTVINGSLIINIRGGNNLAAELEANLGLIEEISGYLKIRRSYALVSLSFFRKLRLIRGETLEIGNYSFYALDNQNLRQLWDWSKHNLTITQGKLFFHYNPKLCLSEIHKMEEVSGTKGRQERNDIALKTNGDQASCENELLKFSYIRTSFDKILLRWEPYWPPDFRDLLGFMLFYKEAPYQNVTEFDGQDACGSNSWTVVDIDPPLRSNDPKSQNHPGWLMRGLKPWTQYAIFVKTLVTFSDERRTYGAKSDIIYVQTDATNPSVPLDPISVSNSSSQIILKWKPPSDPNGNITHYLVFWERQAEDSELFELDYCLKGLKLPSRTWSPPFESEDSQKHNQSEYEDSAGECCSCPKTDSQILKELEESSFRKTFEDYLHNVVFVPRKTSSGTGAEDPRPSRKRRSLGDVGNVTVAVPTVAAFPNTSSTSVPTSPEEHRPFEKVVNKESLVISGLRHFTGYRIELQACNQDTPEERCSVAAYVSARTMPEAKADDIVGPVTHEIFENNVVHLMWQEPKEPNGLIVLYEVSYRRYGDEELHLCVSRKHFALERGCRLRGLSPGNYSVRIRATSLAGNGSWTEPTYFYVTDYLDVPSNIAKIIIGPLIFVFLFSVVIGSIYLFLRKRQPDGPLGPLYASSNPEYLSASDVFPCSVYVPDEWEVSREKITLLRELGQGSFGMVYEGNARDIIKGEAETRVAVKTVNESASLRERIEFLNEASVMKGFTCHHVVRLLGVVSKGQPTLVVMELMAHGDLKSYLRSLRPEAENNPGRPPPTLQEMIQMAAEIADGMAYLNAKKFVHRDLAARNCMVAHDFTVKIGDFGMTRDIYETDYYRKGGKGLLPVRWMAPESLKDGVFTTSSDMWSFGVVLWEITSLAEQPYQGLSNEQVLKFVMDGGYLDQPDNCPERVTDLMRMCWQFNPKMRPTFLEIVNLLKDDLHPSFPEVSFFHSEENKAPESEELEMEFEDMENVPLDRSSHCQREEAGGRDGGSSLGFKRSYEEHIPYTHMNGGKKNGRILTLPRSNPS
Procedure, shortened: as §1

CK2α2(h) = target: T4, CK2α2(h) (Homo sapiens, UniProt P19784)
T4 construct: gene CSNK2A2
T4 sequence (P19784 whole entry): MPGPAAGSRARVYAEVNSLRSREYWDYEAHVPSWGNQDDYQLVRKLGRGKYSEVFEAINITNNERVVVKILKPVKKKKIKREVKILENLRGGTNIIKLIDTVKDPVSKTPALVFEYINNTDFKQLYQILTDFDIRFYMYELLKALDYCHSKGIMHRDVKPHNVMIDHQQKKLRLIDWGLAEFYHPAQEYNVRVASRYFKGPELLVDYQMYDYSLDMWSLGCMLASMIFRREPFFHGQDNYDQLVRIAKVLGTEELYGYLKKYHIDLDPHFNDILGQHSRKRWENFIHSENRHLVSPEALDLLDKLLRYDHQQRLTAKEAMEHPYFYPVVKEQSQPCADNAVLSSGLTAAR
Procedure, shortened: as §1

NEK2(h) = target: T5, NEK2(h) (Homo sapiens, UniProt P51955)
T5 sequence (P51955 1-445): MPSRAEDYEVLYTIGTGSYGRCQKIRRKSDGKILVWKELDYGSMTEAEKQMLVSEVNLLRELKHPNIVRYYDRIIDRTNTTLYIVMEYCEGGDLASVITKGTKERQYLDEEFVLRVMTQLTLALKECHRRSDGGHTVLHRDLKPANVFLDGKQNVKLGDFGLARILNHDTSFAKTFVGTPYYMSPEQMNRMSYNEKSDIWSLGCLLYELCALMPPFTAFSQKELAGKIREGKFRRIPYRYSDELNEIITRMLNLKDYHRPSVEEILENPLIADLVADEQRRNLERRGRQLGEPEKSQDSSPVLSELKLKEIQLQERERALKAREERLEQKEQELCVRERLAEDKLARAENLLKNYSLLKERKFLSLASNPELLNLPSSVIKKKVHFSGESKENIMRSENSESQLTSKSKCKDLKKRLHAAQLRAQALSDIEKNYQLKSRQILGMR
Procedure, shortened: as §1

[1] = read-out: Residual activity (%) 5ay
[2] = read-out: Residual activity (%) Spautin-1 5aa
[3] = read-out: Residual activity (%) 5at
[4] = read-out: Residual activity (%) 5as

FGFR4(h), sequence (P22455 whole entry): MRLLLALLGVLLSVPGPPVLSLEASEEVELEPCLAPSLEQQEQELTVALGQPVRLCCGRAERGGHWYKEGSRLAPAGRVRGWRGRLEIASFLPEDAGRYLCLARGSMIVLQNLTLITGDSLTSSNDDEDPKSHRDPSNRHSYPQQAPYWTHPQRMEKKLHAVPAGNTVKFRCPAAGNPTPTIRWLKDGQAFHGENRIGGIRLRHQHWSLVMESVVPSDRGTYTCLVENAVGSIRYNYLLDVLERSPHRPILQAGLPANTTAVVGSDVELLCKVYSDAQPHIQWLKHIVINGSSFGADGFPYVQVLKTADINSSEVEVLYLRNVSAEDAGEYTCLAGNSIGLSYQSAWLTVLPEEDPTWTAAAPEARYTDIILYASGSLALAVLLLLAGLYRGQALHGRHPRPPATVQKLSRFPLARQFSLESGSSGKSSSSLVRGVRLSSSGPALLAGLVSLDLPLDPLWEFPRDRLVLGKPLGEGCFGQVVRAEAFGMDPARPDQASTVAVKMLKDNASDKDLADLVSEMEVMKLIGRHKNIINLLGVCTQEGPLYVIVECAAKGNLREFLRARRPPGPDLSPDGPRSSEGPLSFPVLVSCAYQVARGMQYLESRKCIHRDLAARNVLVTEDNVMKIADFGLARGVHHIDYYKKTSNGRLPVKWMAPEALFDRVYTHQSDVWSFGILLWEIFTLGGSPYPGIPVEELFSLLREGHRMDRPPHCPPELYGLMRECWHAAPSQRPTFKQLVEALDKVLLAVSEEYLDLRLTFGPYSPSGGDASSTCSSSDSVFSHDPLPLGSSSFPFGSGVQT

## COc1ccc2ncnc(Nc3cccc(F)c3)c2c1 [5ay, N-(3-Fluorophenyl)-6-Methoxy-4-Quinazolinamine]
FGFR4(h); [1]
  remaining activity at 10 µM: 98%
MAP4K3(h); [1]
  remaining activity at 10 µM: 87%
ICK(h); [1]
  remaining activity at 10 µM: 92%
IR(h); [1]
  remaining activity at 10 µM: 98%
CK2α2(h); [1]
  remaining activity at 10 µM: 83%
NEK2(h); [1]
  remaining activity at 10 µM: 92%

## Fc1ccc(CNc2ncnc3ccc(F)cc23)cc1 [5aa, 6-Fluoro-N-(4-fluorobenzyl)-4-Quinazolinamine]
FGFR4(h); [2]
  remaining activity at 10 µM: 99%
MAP4K3(h); [2]
  remaining activity at 10 µM: 99%
ICK(h); [2]
  remaining activity at 10 µM: 97%
IR(h); [2]
  remaining activity at 10 µM: 73%
CK2α2(h); [2]
  remaining activity at 10 µM: 101%
NEK2(h); [2]
  remaining activity at 10 µM: 91%

## Fc1ccc2ncnc(NCCc3ccc(Cl)cc3)c2c1 [5at, N-[2-(4-Chlorophenyl)Ethyl]-6-Fluoro-4-Quinazolinamine]
FGFR4(h); [3]
  remaining activity at 10 µM: 96%
MAP4K3(h); [3]
  remaining activity at 10 µM: 93%
ICK(h); [3]
  remaining activity at 10 µM: 88%
IR(h); [3]
  remaining activity at 10 µM: 70%
CK2α2(h); [3]
  remaining activity at 10 µM: 86%
NEK2(h); [3]
  remaining activity at 10 µM: 95%

## Fc1ccc(CCNc2ncnc3ccc(F)cc23)cc1 [5as, 6-Fluoro-N-[2-(4-Fluorophenyl)Ethyl]-4-Quinazolinamine]
FGFR4(h); [4]
  remaining activity at 10 µM: 93%
MAP4K3(h); [4]
  remaining activity at 10 µM: 87%
ICK(h); [4]
  remaining activity at 10 µM: 90%
IR(h); [4]
  remaining activity at 10 µM: 88%
CK2α2(h); [4]
  remaining activity at 10 µM: 95%
NEK2(h); [4]
  remaining activity at 10 µM: 88%
